Results as given in ChEMBL document CHEMBL3045822, “Growth retarding activity of lichen substances against the polyphagous herbivorous insect Spodoptera littoralis” (1994).
Calls of active or inactive are those of the source. No cut-off for these calls is given here.

Experiments:
Spodoptera littoralis [1] = assay: Growth retarding activity against neonate larval stage of Spodoptera littoralis fed with diet containing compound measured per gm of dry weight after 6 days by chronic feeding bioassay; type: functional; conditions: 144 h, read-out: ED50
Spodoptera littoralis [2] = assay: Toxicity against neonate larval stage of Spodoptera littoralis fed with diet containing compound assessed as reduction in larval survival measured per gm dry weight after 6 days by chronic feeding assay; type: functional; conditions: 144 h, read-out: ED50
Spodoptera littoralis [3] = assay: Growth retarding activity against neonate larval stage of Spodoptera littoralis fed with diet containing compound assessed as larval weight at 70 umol/gm dry weight after 6 days by chronic feeding bioassay (reference value: 100%); type: functional
Spodoptera littoralis [4] = assay: Growth retarding activity against neonate larval stage of Spodoptera littoralis fed with diet containing compound assessed as larval weight after 6 days by chronic feeding bioassay (reference value: 100%); type: functional
Spodoptera littoralis [5] = assay: Toxicity against neonate larval stage of Spodoptera littoralis fed with diet containing compound assessed as reduction in larval survival at 15 to 110 umol/gm dry weight after 6 days by chronic feeding assay; type: functional, organism-based
Spodoptera littoralis [6] = assay: Induction of imago developmental aberrations with imperfect wings in Spodoptera littoralis fed with diet containing compound at 110 umol/gm dry weight treated for 6 days measured after transferring onto control diet by chronic feeding bioassay; type: functional
Spodoptera littoralis [7] = assay: Change in pupal weight of Spodoptera littoralis fed with diet containing compound at 110 umol/gm dry weight treated for 6 days measured after transferring onto control diet by chronic feeding bioassay (reference value: 0.40 +/-0.05 gms); type: functional
Spodoptera littoralis [8] = assay: Prolongation of duration of larval period in Spodoptera littoralis fed with diet containing compound at 110 umol/gm dry weight treated for 6 days measured after transferring onto control diet by chronic feeding bioassay (reference value: 17 to 20 days); type: functional
Spodoptera littoralis [9] = assay: Growth retarding activity against neonate larval stage of Spodoptera littoralis fed with diet containing compound assessed as larval weight at 94 umol/gm dry weight after 6 days by chronic feeding bioassay (reference value: 100%); type: functional
Spodoptera littoralis [10] = assay: Growth retarding activity against neonate larval stage of Spodoptera littoralis fed with diet containing compound assessed as larval weight at 41 umol/gm dry weight after 6 days by chronic feeding bioassay (reference value: 100%); type: functional
Spodoptera littoralis [11] = assay: Reduction in number of imagoes emerging from pupae in Spodoptera littoralis fed with diet containing compound at 110 umol/gm dry weight after 6 days by chronic feeding bioassay (reference value: 90%); type: functional; set-up: scale not given: the % may be the effect or the level left
Spodoptera littoralis [12] = assay: Growth retarding activity against neonate larval stage of Spodoptera littoralis fed with diet containing compound assessed as larval weight at 104 umol/gm dry weight after 6 days by chronic feeding bioassay (reference value: 100%); type: functional

| SMILES | EC50 (Spodoptera littoralis [1]) [µmol/g] | Activity (Spodoptera littoralis [5]) | Activity (Spodoptera littoralis [7]) [g] | Time (Spodoptera littoralis [8]) [days] | other results |
| --- | --- | --- | --- | --- | --- |
| CC(=O)C1=C(O)C=C2Oc3c(C(C)=O)c(O)c(C)c(O)c3[C@@]2(C)C1=O [(+)-USNIC ACID] | 4.5 | – | – | – | EC50 (Spodoptera littoralis [2]): 90.8 µmol/g |
| CC(=O)C1=C(O)C=C2Oc3c(C(C)=O)c(O)c(C)c(O)c3[C@]2(C)C1=O [(-)-USNIC ACID] | 1.2 | – | – | – | EC50 (Spodoptera littoralis [2]): 8.6 µmol/g |
| COC(=O)c1c(C)cc(OC(=O)c2c(C)cc(O)c(C=O)c2O)c(C)c1O [ATRANORIN] | > 110 | inactive | – | – | Activity (Spodoptera littoralis [3]): 52%; Activity (Spodoptera littoralis [4]): 51% |
| O=C1O/C(=C2/C(=O)Oc3ccccc32)C(O)=C1c1ccccc1 [CALYCIN] | 37.6 | inactive | 0.33 | 21 | Activity (Spodoptera littoralis [6]): 44% |
| COc1cc(C)c(C(=O)Oc2cc(C)c(C(=O)O)c(O)c2)c(O)c1 [EVERNIC ACID] | > 110 | inactive | – | – | – |
| Cc1cc(O)c(C=O)c2c1C(=O)Oc1c(COC(=O)/C=C/C(=O)O)c(O)c(C(=O)O)c(C)c1O2 [FUMARPROTOCETRARIC ACID] | 30.5 | inactive | 0.45 | 24 | – |
| Cc1cc(O)c(C=O)c2c1C(=O)Oc1c(C)c(O)c3c(c1O2)C(O)OC3=O (stereo not drawn) [NORSTICTIC ACID] | 32 | inactive | 0.33 | 17 | Activity (Spodoptera littoralis [9]): 18%; Activity (Spodoptera littoralis [4]): 18% |
| CCCCCC(=O)Cc1cc(O)c(O)c2c1C(=O)Oc1cc(O)c(C(=O)O)c(CCCCC)c1O2 [OXYPHYSODIC ACID] | 11.2 | inactive | 0.33 | 19 | Activity (Spodoptera littoralis [10]): 15%; Activity (Spodoptera littoralis [6]): 50% |
| CCCCCC(=O)Cc1cc(O)cc2c1C(=O)Oc1cc(O)c(C(=O)O)c(CCCCC)c1O2 [PHYSODIC ACID] | > 110 | inactive | – | – | – |
| COc1cc(C(=O)O)c2c(c1C)OC(=O)c1c(C)cc(O)c(C=O)c1O2 [PSOROMIC ACID] | 46.2 | inactive | 0.41 | 20 | – |
| O=C1OC2=C(c3ccccc3)C(=O)OC2=C1c1ccccc1 [PULVINIC DILACTONE] | > 110 | inactive | – | – | – |
| COC(=O)C(Cc1ccccc1)NC(=O)/C(=C1/OC(=O)C(c2ccccc2)=C1O)c1ccccc1 (stereo not drawn) [RHIZOCARPIC ACID] | 70.8 | inactive | 0.28 | 19 | Activity (Spodoptera littoralis [11]): 25% |
| Cc1cc(O)c(C=O)c2c1C(=O)Oc1c(CO)c(O)c3c(c1O2)C(O)OC3=O (stereo not drawn) [SLAZINIC ACID] | 29.2 | inactive | 0.4 | 24 | – |
| COc1cc(C)c2c(c1C=O)Oc1c(c(C)c(O)c3c1C(O)OC3=O)OC2=O (stereo not drawn) [STICTIC ACID] | 57.5 | inactive | 0.41 | 20 | Activity (Spodoptera littoralis [12]): 27% |
| COC(=O)/C(=C1/OC(=O)C(c2ccccc2)=C1O)c1ccccc1 [VULPINIC ACID] | 17.2 | inactive | 0.32 | 23 | Activity (Spodoptera littoralis [6]): 14% |
